# Measured values reported in paper PMC7144234, “Antiproliferative chromone derivatives induce K562 cell death through endogenous and exogenous pathways” (Journal of Enzyme Inhibition and Medicinal Chemistry, 2020).
# How the values were obtained:
# Claspin = test: Human Apoptosis Array kit, claspin expression in K562 cells; assay type: cell-based; settings: K562, 2 µM, 24 h
# Experimental: (§1) The relative expression levels of 35 apoptosis-related proteins were evaluated using Human Apoptosis Array kit (R&D Systems, Abingdon, UK) in K562 cells. Proteins were extracted according to the manufacturer’s protocol from cells treated for 24 h with compound 15a (2 µM). The tool is fast, sensitive and economical, with 2.0 ml of array buffer added to each well, followed by array, The capture antibodies are retained in their specific locations, then incubated, transferred, diluted, added to Streptavidin-HRP, shaken. The platform shaker was incubated on the plate for 30 min, then the membrane was removed, 1 ml of the prepared Chemi Reagent Mix was evenly pipetted onto each membrane, incubated, the excess Chemi Reagent Mix was removed, and the membrane was placed in a self-developing film cartridge, exposed to X-ray film for 1–10 min. The positive signals seen on developed film can be quickly identified by placing the transparency overlay template on the array image and aligning it with the pairs of reference spots in three corners of each array. Creating templates, exporting files, averaging signals, finding backgrounds, comparing corresponding signals on the array to determine relative changes in apoptosis-related protein levels.
# K562 = test: MTT antiproliferative assay, K562; assay type: cell-based, human; settings: 72 h, chronic myeloid leukaemia K562
# Experimental: (§2) The colorimetric MTT (3-(4,5-dimethylthiazol-2-yl)-2,5-diphenyltetrazolium bromide) assay was used to measure the cell viability of all of the above cell lines following treatment with target hybrids. Exponentially growing cells were added into 96-well plates at a concentration of 2000–4000 cells per well. Following attachment the cells were treated with varying concentrations (64, 16, 4, 1, 0.25, 0.0625 and 0.015625 µM) of target compounds in media and were kept for incubation for 72 h. MTT (20 µL, 5 mg/mL in PBS) was added to each well and the cells were incubated for another 3 h at 37 °C. Then the medium was removed, followed by the addition of 150 µL DMSO for each well. After that, the absorbance (OD) data of each well at 570 nm wavelength were measured by a Microplate Reader (BIO-RAD), and half inhibition rates (IC50) were calculated[59]^,[60].
# HCT-116 = test: MTT antiproliferative assay, HCT-116; assay type: cell-based, human; settings: 72 h, colorectal carcinoma HCT-116
# Experimental: as §2
# K562 cells [1] = test: Hoechst 33258 staining, morphological analysis; assay type: cell-based, human
# Experimental: K562 cells were incubated with different concentrations (0, 0.8, 1.6 and 3.2 µM) of 15a for a period of time, the medium containing the compound was removed, the cell smear was naturally dried, and immersed in 4% paraformaldehyde for 30 min or overnight to improve cell permeability, then soaked in PBS, washed for three times, added appropriate amount of Hoechst 33258 staining solution, fully covered, allowed to stand at room temperature for 10 min, finally immersed in PBS again, washed three times and sealed. Anti-fluorescence quenching after the liquid was sealed, the staining results were observed under a fluorescence microscope.
# PBMC = test: MTT assay, peripheral blood mononuclear cells; assay type: cell-based, human; settings: 72 h
# Experimental: as §2
# B16 = test: MTT antiproliferative assay, B16; assay type: cell-based; settings: 72 h, melanoma B16
# Experimental: as §2
# HtrA2 = test: Human Apoptosis Array kit, HtrA2 expression in K562 cells; assay type: cell-based; settings: K562, 2 µM, 24 h
# Experimental: as §1
# Catalase = test: Human Apoptosis Array kit, catalase expression in K562 cells; assay type: cell-based; settings: K562, 2 µM, 24 h
# Experimental: as §1
# HepG2 = test: MTT antiproliferative assay, HepG2; assay type: cell-based, human; settings: 72 h, hepatoma HepG2
# Experimental: as §2
# Bad = test: Human Apoptosis Array kit, Bad expression in K562 cells; assay type: cell-based; settings: K562, 2 µM, 24 h
# Experimental: as §1
# K562 cells [2] = test: Cell apoptosis assay (Annexin V-FITC/PI, flow cytometry); assay type: cell-based, human; settings: 72 h
# Experimental: […] 500 µL of binding buffer suspension cells, 5 µL of Annexin V-FITC, and 5 µL of PI were mixed incubated at room temperature, protected from light, and reacted for 5–15 min, then analysed with flow cytometry instrument to detect cell apoptosis.
# Bax = test: Human Apoptosis Array kit, Bax expression in K562 cells; assay type: cell-based; settings: K562, 2 µM, 24 h
# Experimental: as §1
# MCF-7 = test: MTT antiproliferative assay, MCF-7; assay type: cell-based, human; settings: 72 h, breast carcinoma MCF-7
# Experimental: as §2
# L-02 = test: MTT assay, normal hepatic L-02 cell line; assay type: cell-based; settings: 72 h, human normal hepatic L-02 cell line
# Experimental: as §2
# K562 cells [3] = test: Cell cycle analysis (PI staining, flow cytometry); assay type: cell-based, human; settings: 72 h
# Experimental: The cells in the logarithmic growth phase were digested into six-well plates. The next day, cells were treated with different concentrations (0, 0.8, 1.6, 3.2 µM) of compound 15a. After 72 h, 5 × 10^5 cells were collected and fixed with a volume fraction of 70% ethanol for 2 h (or overnight), washed the fixative with PBS, added 100 µL RNase A in 37 °C water bath for 30 min, and finally 400 µL of PI stain was added, after 30 min under the dark at 4 °C, the cytometry was used to record the red fluorescence at the excitation wavelength of 488 nm, and the cell cycle distribution of the DNA content was evaluated.
substance,measurement,setting,value
"4-((1-(6-Methoxy-4-oxo-4H-chromene-3-carboxamido)propan-2-yl)oxy)-3-(phenylsulfonyl)-1,2,5-oxadiazole 2-oxide [15a]",expression of Claspin,Claspin,increased
same,IC50,K562,1610 ± 180 nM
same,IC50,HCT-116,6.74 ± 0.9 µM
same,cell morphology after Hoechst 33258 staining,"K562 cells [1]; K562, 3.2 µM",cell membranes were ruptured and the nuclei were fragmented
same,cell morphology after Hoechst 33258 staining,"K562 cells [1]; K562, 0.8 and 1.6 µM",typical apoptotic morphology
same,IC50,PBMC,> 50 µM
same,IC50,B16,9.72 ± 0.52 µM
same,expression level of HtrA2,HtrA2,increased the expression levels
same,expression of Catalase,Catalase,up-regulated
same,IC50,HepG2,4.86 ± 0.39 µM
same,expression of Bad compared to the control,Bad,increased expression
same,apoptotic rate,"K562 cells [2]; K562, 0.8 µM",16.28%
same,apoptotic rate,"K562 cells [2]; K562, 1.6 µM",20.56%
same,apoptotic rate,"K562 cells [2]; K562, 3.2 µM",51.87%
same,expression of Bax compared to the control,Bax,increased expression
same,IC50,MCF-7,13.7 ± 0.33 µM
same,IC50,L-02,36.9 ± 0.62 µM
same,cells in G1 phase,"K562 cells [3]; K562, 0.8 µM",48.84%
same,cells in G2 phase,"K562 cells [3]; K562, 0.8 µM",10.71%
same,cells in S phase,"K562 cells [3]; K562, 0.8 µM",40.45%
same,cells in G1 phase,"K562 cells [3]; K562, 1.6 µM",41.43%
same,cells in G2 phase,"K562 cells [3]; K562, 1.6 µM",11.89%
same,cells in S phase,"K562 cells [3]; K562, 1.6 µM",46.68%
same,cells in G1 phase,"K562 cells [3]; K562, 3.2 µM",36.21%
same,cells in G2 phase,"K562 cells [3]; K562, 3.2 µM",13.51%
same,cells in S phase,"K562 cells [3]; K562, 3.2 µM",50.28%
